Consider 2 compounds from PMC9814590, “Precise heteroatom doping determines aqueous solubility and self-assembly behaviors for polycyclic aromatic skeletons” (Communications Chemistry, 2022).

For orientation: solubility means the dissolved amount per volume that the medium holds. A low value points to little dissolved substance.

Data set [1] is described as follows: Kinetic radii from DOSY NMR (Stokes-Einstein equation). The data set is classed as physicochemical.
Data set [2] can be described thus: Shake-flask thermodynamic aqueous solubility (1H NMR quantification). As to conditions: water, thermodynamic from solid, D2O, room temperature, 24 h. The data set is classed as physicochemical. An excerpt:
(§1) With the 12 combinatorial molecules in hand, we initially examined their hydrophilicity and aqueous solubility. The water-contact angle test gave a clear hydrophilic assessment for these molecules (Table 1 and Supplementary Table 1). The conventional shake-flask method was employed to obtain the thermodynamic aqueous solubility data[29]. […]. In pursuit of both improving the hydrophilicity and aqueous solubility, we planned to introduce dual N/O heteroatoms to C1 skeleton as listed in group 2. […]. The turning point comes to C9 that doping two N atoms on the phenanthrene subcomponent besides the oxazole part. A water contact angle of 0° indicates the high hydrophilicity of C9. […].
1.3 Determination of solubility-related parameters
(1) Measurement of aqueous solubility
We applied the classic shake-flask method to determine the solubility data of C2–C12 in water. Typically, an excess amount of C2 was added to 1.0 mL of D2O, and the mixture was stirred at room temperature for 24 h. After that, the phase separation of saturated solution was finished through centrifugation. 1H NMR technology was applied to quantitatively analysis the concentration of solute using tetrahydrofuran as internal standard. Actually, we didn’t synthesize C1 to obtain its solubility data from experimental method because it’s obvious that this compound would be insoluble in water from reasonable judgement. Alternatively, due to its high hydrophobicity and measured water solubility data from C2–C8 counterpart, we can estimate this value must be at least lower than 0.1 mg / mL as well. […]

Data set [3] in a line: Water-contact angle test. The data set is classed as physicochemical. The note with it: C2-C12.
Excerpt: as §1
Supplementary Table 1. Collected water contact angles for C2 – C12 […]

The nature of data set [4]: AFM measurement of nanoparticles in wet conditions. The data set is classed as physicochemical. As to conditions: aqueous solution 1.5 mM on mica. As to the method: To further confirm the aggregation-induced nanoparticles formed in water, we carried out atomic force microscope (AFM) measurement of C10-C12 in wet conditions[35] (Fig. 2c and Supplementary Figs. 29–31). Typically, a drop of aqueous solution of C11 (1.5 mM) was cast on a freshly cleaved mica surface and subjected to test. […] 2D and 3D height profiles gave a particle size around 8 nm.

A short description of data set [5]: Apparent association constants by 1H NMR shift analysis (dimeric model). The data set is classed as physicochemical. An excerpt: As is known, high concentration as a driving force to promote the molecular aggregation in solution is ubiquitous and well recognized[37],[38]. To compare the high concentration induced aggregation phenomenon with our case, we measured their apparent association constants (Ka) by ^1H NMR shift analysis after simplifying the aggregates to a dimeric model[39] (Supplementary Figs. 17–28). As listed in Fig. 3b, C10-C12 in chloroform display relatively weak association ability induced by high concentration factor. […] Meanwhile, the ^13C NMR spectra gave more informative details about C10-C12 in different existing states (Fig. 3c, Supplementary Figs. 13 and 14). […] In comparison, these signals became broadened and moved to upfield with a maximal 3.19 ppm shift in D2O conditions, which was almost in consistent with the solid-state ^13C magic-angle spinning (MAS) NMR spectrum despite its much broader signature. Moreover, the luminescent emissions of C10-C12 in various solvent ratios and solid-state were also screened (Fig. 3d, Supplementary Figs. 33 and 34). […] Unexpectedly, the maximal emissions in water are close to the solid state of C10-C12 (e.g., 472 nm in water versus 486 nm in solid for C10), indicative of a homologous excited-state energy transfer pathway.

A short description of data set [6]: Hansen solubility parameters (HSP) from rated solvent library, optimized in HSPiP; Ra and RED versus water. The data set is classed as physicochemical. An excerpt: To figure out why the doped N/O heteroatoms on the aromatic skeletons can both influence their hydrophilicity and aqueous solubility, we employed the Hansen solubility parameters (HSP) to interpret this phenomenon. This method developed by Charles Hansen et al.[30] has found broad use both in academia and industry for predicting the compatibility or affinity between two substances[31]–[34]. The key elements of HSP approach are three partial solubility parameters consisting of δD, δP, and δH, in which δD represents the dispersion solubility parameter, δP represents the polar solubility parameter, and δH represents the hydrogen bonding solubility parameter, respectively.
The three partial parameters define a three-dimensional coordinate for substances in a virtual solubility space (Hanse space). In principle, the closer the two coordinates of HSP are, the more likely the substances will dissolve in each other, which is consistent with the notion of “like dissolves like” rule. To better describe the degree of closeness, another solubility parameter “distance” (Ra) is introduced as follows:1 Ra2=4(δD2−δD1)^2+(δP2−δP1)^2+(δH2−δH1)^2 […]
Meanwhile, each substance has an intrinsic distance parameter R0, together with HSP as a center point that would define a solubility sphere in Hansen space. If the HSP coordinate of one substance is located inside the sphere of another substance, it indicates a high affinity between them. For solute and solvent cases, a dissolution process may happen. Otherwise, a low affinity is inferred if one substance is excluded from the sphere of another.
The total HSP data set of C1-C12 was experimentally tested and optimized from a combination of solvents library and listed in Table 1 (Supplementary Methods 1.3, Supplementary Fig. 1). […] For the unique H2O, there are three sets of HSP for different conditions. The first is the HSP of single-molecule (pure) water (15.5, 16.0, 42.3), in which the δH is more salient than δD and δP, it well explains the strong hydrogen bonding interactions between water molecules. However, its use in the prediction of solubility in water is not deemed appropriate in most cases. The second and third sets of HSP for water are those derived from solubility data and should be chosen case by case. The second set of HSP (15.1, 20.4, 16.5) was derived from experimental data set exceeding 1% soluble compounds in water, which may be appropriate for the diluted solute case (denoted as Water1). The third set of HSP (18.1, 17.1, 16.9) was derived from experimental data set of complete miscible compounds with water, which may be appropriate for the dense solute case (denoted as Water2).
1.3 Determination of solubility-related parameters […]
(2) Determination of Hansen solubility parameters (HSP)3
A collection of solvents was used to estimate the HSPs values of C2–C12, which includes dichloromethane, chloroform, toluene, diethyl ether, hexane, dioxane, pyridine, tetrahydrofuran, dimethyl sulfoxide, N, N-dimethyl formamide, acetone, acetonitrile, methanol and ethanol. If the specific solvent (0.5 mL) can dissolve at least 1.0 mg of certain solute would be rated as good solvent, otherwise as bad solvent. For C1, it’s expected that this molecule can only dissolve in nonpolar solvents (recrystallized from CCl4 according to literature report). We […]
methanol, ethanol and water would be bad solvents. These rated solvent s datasets for C1–C12 were imported to HSPiP software that developed by Dr. Hansen, Abbott and Hiroshi to optimize and obtain three partial HSPs values.

Details of data set [7]: method as in hazardous substances data bank. As to conditions: 25 °C; ref hazardous substances data bank; cited from earlier work.
[8] abbreviates: experimentally rated solvent library, HSPiP.

Converted amounts (≈) assume the structure as drawn.

Take `c1cncc(-c2nc3c4cccnc4c4ncccc4c3o2)c1` [C11]: the “kinetic radius, DOSY” value in data set [1] (D2O) stood at 3.98 nm. In data set [1] (MeOD-d4), the “kinetic radius, DOSY” value stood at 0.65 nm. The solubility at 24 h in data set [2] is 13 mg/mL (≈ 43.6 mM). In data set [3], this compound returned a Water contact angle of 0 °. For the same compound, the “average diameter of nanoparticles (AFM statistical analysis)” value in data set [4] amounted to 8.32 nm. Further, the “Ka (CHCl3), apparent association constant” value in data set [5] (CHCl3, dimeric model) is 6(1) M^-1. In addition, the “Ka (MeOH-H2O), apparent association constant” value in data set [5] (MeOH-H2O (legend: H2O), dimeric model) is 850(50) M^-1. Further, in data set [6] (distance to water HSP of dense condition (18.1, 17.1, 16.9)), the Water2 Ra was 10.2 MPa^0.5. Besides, the Water1 Ra in data set [6] (distance to water HSP of dilute condition (15.1, 20.4, 16.5)) was 14.9 MPa^0.5. For the same compound, in data set [6] (setting [8]), the “δD (dispersion solubility parameter)” value was 18.3 (MPa)^0.5, the “δH (hydrogen bonding solubility parameter)” value is on record as 15.9 (MPa)^0.5 and the “δP (polar solubility parameter)” value was 7.0 (MPa)^0.5. Moreover, the R0 (intrinsic distance parameter) in data set [6] (experimentally rated solvent library, HSPiP, unit assumed) came out at 11 MPa^0.5. The “Water1 RED (Ra/R0)” value in data set [6] (water HSP of dilute condition (15.1, 20.4, 16.5)) is on record as 1.4.

Regarding `c1cnccn1` [pyrazine], the “Aqueous solubility” value in data set [7] was “freely soluble in water”.
